Laboratory results reported in paper PMC11124822, “Discovery and Anticancer Screening of Novel Oxindole-Based Derivative Bearing Pyridyl Group as Potent and Selective Dual FLT3/CDK2 Kinase Inhibitor” (Pharmaceuticals, 2024).

Key:
DU-145 = test: NCI-60 antiproliferative screen (SRB); assay type: cell-based, human; settings: Homo sapiens; 10 µM single dose, 48 h; DU-145 (Prostate); read-out: Growth inhibition (%)
NCI-H322M = test: NCI-60 antiproliferative screen (SRB); assay type: cell-based, human; settings: Homo sapiens; 10 µM single dose, 48 h; NCI-H322M (NSCLC); read-out: Growth inhibition (%)
MDA-MB-468 = test: NCI-60 antiproliferative screen (SRB); assay type: cell-based, human; settings: Homo sapiens; 10 µM single dose, 48 h; MDA-MB-468 (Breast); read-out: Growth inhibition (%)
HT29 = test: NCI-60 antiproliferative screen (SRB); assay type: cell-based, human; settings: Homo sapiens, HT-29; 10 µM single dose, 48 h; HT29 (Colon); read-out: Growth inhibition (%)
LOX IMVI = test: NCI-60 antiproliferative screen (SRB); assay type: cell-based, human; settings: Homo sapiens; 10 µM single dose, 48 h; LOX IMVI (Melanoma); read-out: Growth inhibition (%)
NCI-H226 = test: NCI-60 antiproliferative screen (SRB); assay type: cell-based, human; settings: Homo sapiens; 10 µM single dose, 48 h; NCI-H226 (NSCLC); read-out: Growth inhibition (%)
PC-3 = test: NCI-60 antiproliferative screen (SRB); assay type: cell-based, human; settings: Homo sapiens; 10 µM single dose, 48 h; PC-3 (Prostate); read-out: Growth inhibition (%)
MDA-MB-435 = test: NCI-60 antiproliferative screen (SRB); assay type: cell-based, human; settings: Homo sapiens; 10 µM single dose, 48 h; MDA-MB-435 (Melanoma); read-out: Growth inhibition (%)
[1] = test system: NCI-60 human cancer cell lines; test: NCI-60 screen, full panel summary; assay type: cell-based; settings: 10 µM single dose; for Mean Growth Percent: all NCI-60 cell lines; for inhibition at 10 µM: Homo sapiens, read-out: Range of Growth Inhibition on All Cells
Description: In a comprehensive test, compounds were assayed at a single dose concentration (10^−5 M) in the full panel of NCI-60 cancer cell lines.

SF-539 = test: NCI-60 antiproliferative screen (SRB); assay type: cell-based, human; settings: Homo sapiens; 10 µM single dose, 48 h; SF-539 (CNS); read-out: Growth inhibition (%)
MOLT-4 = test: NCI-60 antiproliferative screen (SRB); assay type: cell-based; settings: Homo sapiens; 10 µM single dose, 48 h; MOLT-4 (Leukemia); read-out: Growth inhibition (%)
SN12C = test: NCI-60 antiproliferative screen (SRB); assay type: cell-based, human; settings: Homo sapiens; 10 µM single dose, 48 h; SN12C (Renal); read-out: Growth inhibition (%)
SW-620 = test: NCI-60 antiproliferative screen (SRB); assay type: cell-based, human; settings: Homo sapiens; 10 µM single dose, 48 h; SW-620 (Colon); read-out: Growth inhibition (%)
BT-549 = test: NCI-60 antiproliferative screen (SRB); assay type: cell-based, human; settings: Homo sapiens; 10 µM single dose, 48 h; BT-549 (Breast); read-out: Growth inhibition (%)
HS 578T = test: NCI-60 antiproliferative screen (SRB); assay type: cell-based, human; settings: Homo sapiens; 10 µM single dose, 48 h; HS 578T (Breast); read-out: Growth inhibition (%)
SF-295 = test: NCI-60 antiproliferative screen (SRB); assay type: cell-based, human; settings: Homo sapiens; 10 µM single dose, 48 h; SF-295 (CNS); read-out: Growth inhibition (%)
OVCAR-8 = test: NCI-60 antiproliferative screen (SRB); assay type: cell-based, human; settings: Homo sapiens; 10 µM single dose, 48 h; OVCAR-8 (Ovarian); read-out: Growth inhibition (%)
786-0 = test: NCI-60 antiproliferative screen (SRB); assay type: cell-based, human; settings: Homo sapiens; 10 µM single dose, 48 h; 786-0 (Renal); read-out: Growth inhibition (%)
CAKI-1 = test: NCI-60 antiproliferative screen (SRB); assay type: cell-based, human; settings: Homo sapiens; 10 µM single dose, 48 h; CAKI-1 (Renal); read-out: Growth inhibition (%)
SNB-75 = test: NCI-60 antiproliferative screen (SRB); settings: Homo sapiens, SNB-75, 48 h, read-out: Growth inhibition (%)
SK-MEL-2 = test: NCI-60 antiproliferative screen (SRB); assay type: cell-based, human; settings: Homo sapiens; 10 µM single dose, 48 h; SK-MEL-2 (Melanoma); read-out: Growth inhibition (%)
MALME-3M = test: NCI-60 antiproliferative screen (SRB); assay type: cell-based, human; settings: Homo sapiens; 10 µM single dose, 48 h; MALME-3M (Melanoma); read-out: Growth inhibition (%)
A549/ATCC = test: NCI-60 antiproliferative screen (SRB); assay type: cell-based, human; settings: Homo sapiens; 10 µM single dose, 48 h; A549/ATCC (NSCLC); read-out: Growth inhibition (%)
HCC-2998 = test: NCI-60 antiproliferative screen (SRB); assay type: cell-based, human; settings: Homo sapiens; 10 µM single dose, 48 h; HCC-2998 (Colon); read-out: Growth inhibition (%)
HCT-116 = test: NCI-60 antiproliferative screen (SRB); assay type: cell-based, human; settings: Homo sapiens; 10 µM single dose, 48 h; HCT-116 (Colon); read-out: Growth inhibition (%)
HL-60(TB) = test: NCI-60 antiproliferative screen (SRB); assay type: cell-based, human; settings: Homo sapiens; 10 µM single dose, 48 h; HL-60(TB) (Leukemia); read-out: Growth inhibition (%)
HCT-15 = test: NCI-60 antiproliferative screen (SRB); assay type: cell-based, human; settings: Homo sapiens; 10 µM single dose, 48 h; HCT-15 (Colon); read-out: Growth inhibition (%)
K-562 = test: NCI-60 antiproliferative screen (SRB); assay type: cell-based, human; settings: Homo sapiens, K562; 10 µM single dose, 48 h; K-562 (Leukemia); read-out: Growth inhibition (%)
OVCAR-3 = test: NCI-60 antiproliferative screen (SRB); assay type: cell-based, human; settings: Homo sapiens; 10 µM single dose, 48 h; OVCAR-3 (Ovarian); read-out: Growth inhibition (%)

Row | SMILES | inhibition at 10 µM (DU-145) | inhibition at 10 µM (NCI-H322M) | inhibition at 10 µM (MDA-MB-468) | inhibition at 10 µM (HT29) | inhibition at 10 µM (NCI-H226) | inhibition at 10 µM (PC-3) | inhibition at 10 µM (MDA-MB-435) | Positive Cytostatic Effect (cell lines with percent growth from 0 to 50 / total number of cell lines) [1] | Positive Cytotoxic Effect (cell lines with percent growth of <0 / total number of cell lines) [1] | Sensitive/Total Cell Lines [1] | Mean Growth Percent [1] | inhibition at 10 µM (SF-539) | inhibition at 10 µM (MOLT-4) | inhibition at 10 µM (SN12C) | inhibition at 10 µM (BT-549) | inhibition at 10 µM (SF-295) | inhibition at 10 µM (OVCAR-8) | inhibition at 10 µM (786-0) | inhibition at 10 µM (CAKI-1) | inhibition at 10 µM (SNB-75) | further results
1 | O=C1Nc2ccccc2C1=Cc1ccc(OCc2ccccc2)cc1 (mixture of isomers) [Compound 5a, (E/Z)-3-[4-(Benzyloxy)benzylidene] indolin-2-one] | -4.38% | 0.44% | 0.75% | -6.64% | 4.45% | 5.85% | -2.33% | 0/59 | 0/59 | 0/59 | −1.00 | -3.4% | 2.73% | 6.16% | -5.74% | -6.78% | 2.34% | 3.67% | 2% | 14.6% | inhibition at 10 µM (LOX IMVI): -7.76%; antiproliferative activity (in words) [1]: weak antiproliferative activity; inhibition at 10 µM [1]: -16.2 to 15.8%; inhibition at 10 µM (SW-620): -7.33%; inhibition at 10 µM (HS 578T): -6.13%; inhibition at 10 µM (SK-MEL-2): -4.59%; inhibition at 10 µM (MALME-3M): -7.59%; inhibition at 10 µM (A549/ATCC): -3.26%; inhibition at 10 µM (HCC-2998): -13.1%; inhibition at 10 µM (HCT-116): 4.24%; inhibition at 10 µM (HL-60(TB)): 11.5%; inhibition at 10 µM (HCT-15): 0.04%; inhibition at 10 µM (K-562): 11.8%
2 | O=C1Nc2ccc(Cl)cc2C1=Cc1ccc(OCc2ccccc2)cc1 (mixture of isomers) [Compound 5c, (E/Z)-3-[4-(Benzyloxy)benzylidene]-5-chloroindolin-2-one] | -5.61% | -0.07% | -0.96% | -2.95% | 11.1% | 12.9% | -3.79% | 0/59 | 0/59 | 0/59 | 0.10 | 4.12% | 3.28% | 0.7% | -2.68% | -11.1% | -0.47% | -2.86% | 13.4% | 13.1% | inhibition at 10 µM (LOX IMVI): 0.14%; antiproliferative activity (in words) [1]: weak antiproliferative activity; inhibition at 10 µM [1]: -13 to 23.9%; inhibition at 10 µM (SW-620): 1.08%; inhibition at 10 µM (HS 578T): -2.25%; inhibition at 10 µM (SK-MEL-2): -0.35%; inhibition at 10 µM (MALME-3M): -13%; inhibition at 10 µM (A549/ATCC): -0.99%; inhibition at 10 µM (HCC-2998): -3.96%; inhibition at 10 µM (HCT-116): 3.41%; inhibition at 10 µM (HL-60(TB)): -3.22%; inhibition at 10 µM (HCT-15): -4.25%; inhibition at 10 µM (K-562): -0.34%
3 | O=C1Nc2cc(Cl)ccc2C1=Cc1ccc(OCc2ccccn2)cc1 (mixture of isomers) [Compound 5h, (E/Z)-6-Chloro-3-[4-(pyridin-2-ylmethoxy)benzylidene]indolin-2-one] | 39.6% | 24.7% | 60.8% | 19.7% | 48.6% | 54.7% | 23.9% | 11/56 | 0/56 | 11/56 | 30.77 | 57.7% | 61.5% | 24.9% | 33.8% | 14.3% | 13.6% | 18.7% | 28.8% | 63.3% | The Most Sensitive Cell Line [1]: OVCAR-4; inhibition at 10 µM (SK-MEL-2): -10.3%; inhibition at 10 µM (MALME-3M): 18%; inhibition at 10 µM (A549/ATCC): 62.5%; inhibition at 10 µM (HCC-2998): 16.7%; inhibition at 10 µM (HCT-116): 47.8%; inhibition at 10 µM (HL-60(TB)): 5.33%; inhibition at 10 µM (HCT-15): 45.5%; inhibition at 10 µM (K-562): 31.4%; inhibition at 10 µM (OVCAR-3): 6.16%
4 | O=C1Nc2cc(Cl)ccc2C1=Cc1ccc(OCc2ccccc2)cc1 (mixture of isomers) [Compound 5d, (E/Z)-3-[4-(Benzyloxy)benzylidene]-6-chloroindolin-2-one] | -1.25% | 0.49% | 1.52% | -5.27% | 7.13% | 11.8% | 0.59% | 0/59 | 0/59 | 0/59 | 0.13 | 5.48% | 0.86% | 4.03% | -1.23% | -14.7% | -0.41% | -4.97% | 10.7% | 26.7% | inhibition at 10 µM (LOX IMVI): 7.32%; antiproliferative activity (in words) [1]: weak antiproliferative activity; inhibition at 10 µM [1]: -54 to 38.4%; inhibition at 10 µM (SW-620): 0.6%; inhibition at 10 µM (HS 578T): 3.27%; inhibition at 10 µM (SK-MEL-2): -11.3%; inhibition at 10 µM (MALME-3M): -15.4%; inhibition at 10 µM (A549/ATCC): -4.59%; inhibition at 10 µM (HCC-2998): -1.79%; inhibition at 10 µM (HCT-116): 2.33%; inhibition at 10 µM (HL-60(TB)): -13.1%; inhibition at 10 µM (HCT-15): 5%; inhibition at 10 µM (K-562): 6.91%
